Data: patent US20140227173A1, “CANCER TREATMENT WITH GAMMA-SECRETASE INHIBITORS” (The Johns Hopkins University, priority 2006, published 2014)

Legend:
[1] = tested on: D283Med; test: Side population (Hoechst 33342 excretion) flow cytometry; format: cell-based
Protocol: (§1) The ability to excrete Hoechst dye, which defines SP (also known as “side population”) in flow cytometric analyses, is another marker of tumor-initiating CSC in the blood and brain (7, 8, 20). SP was therefore analyzed to obtain a second measure of the effects of Notch on CSC.
(§2) Flow cytometric analysis of S-phase fraction and cell cycle kinetics was performed using a FACSCalibur (Becton Dickinson, San Jose, Calif.) with CELL Quest, version 3.3 software (15). CD133 studies were performed using the same instrument, with antibodies from Miltenyi (Miltenyi Biotec, Auburn, Calif.) according to the manufacturer's instructions. […] Prior to analysis, cells were washed and resuspended in 2 μg/ml PI (Sigma, St. Louis, Mo.). […] To ensure proper identification of SP cells, cells were incubated as above with the addition of 50 μM verapamil (Sigma).

[2] = tested on: D425Med; test: as above; format: cell-based
Protocol: as §1, §2

[3] = tested on: DAOY; test: as above; format: cell-based
Protocol: as §1, §2

[4] = tested on: neuroblastoma cell lines; conditions: cited from earlier work

Row | Structure (SMILES) | side population [1] | side population [2] | Hoechst excretion (side population) [3] | side population [4]
1 | COc1ccc(CCN(C)CCCC(C#N)(c2ccc(OC)c(OC)c2)C(C)C)cc1OC (stereo not shown) [verapamil, reference compound] | ablated | ablated | abolished Hoechst excretion | 
2 | O=C1c2c(O)ccc(O)c2C(=O)c2c(NCCNCCO)ccc(NCCNCCO)c21 [Mitoxantrone] |  |  |  | increases the side population
